Results from the supplement of paper PMC10307832.

Tests used:
Experiment in all cases: relative viability (nuclei count vs DMSO), 5 days (fraction); higher = more cells survive
[1] = compound: O=c1ncccn1[C@@H]1O[C@H](CO)[C@@H](O)[C@H]1O [Zebularine] + O=C(c1cc(Cc2n[nH]c(=O)c3ccccc23)ccc1F)N1CCN(C(=O)C2CC2)CC1 [Olaparib] (partner 8 µM)
Procedure, shortened: (§1)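 Relative viability was taken as the ratio of nuclei in treated wells to nuclei in vehicle wells. Lung cancer cell lines in 1536-well plates received compounds by pin tool one day after seeding, either one drug alone or a fixed anchor-drug dose plus five library-drug doses (not always all listed) in √10 steps. Nuclei were counted on 4× images after 5 days of treatment, and values are medians of duplicate plates.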

[2] = compound: O=c1ncccn1[C@@H]1O[C@H](CO)[C@@H](O)[C@H]1O [Zebularine] + C[C@@H](Oc1cc(-c2cnn(C3CCNCC3)c2)cnc1N)c1c(Cl)ccc(F)c1Cl [Crizotinib] (partner 1 µM)
Procedure, shortened: as §1

[3] = compound: CC(C)CCN1c2nc(Nc3cc(F)c(O)c(F)c3)ncc2N(C)C(=O)C1C [BI-D1870] + C[C@]1(O)C[C@@H](c2nc(-c3ccc4ccc(-c5ccccc5)nc4c3)c3c(N)nccn32)C1 [Linsitinib] (partner 1 µM)
Procedure, shortened: as §1

[4] = compound: O=c1ncccn1[C@@H]1O[C@H](CO)[C@@H](O)[C@H]1O [Zebularine] + Nc1nc2[nH]cc(CCc3ccc(C(=O)N[C@@H](CCC(=O)O)C(=O)O)cc3)c2c(=O)[nH]1 [Pemetrexed] (partner 0.2 µM)
Procedure, shortened: as §1

| Cell Line | relative viability ([1]; first compound 1 µM) | relative viability ([1]; first compound 3.162 µM) | relative viability ([1]; first compound 10 µM) | relative viability ([1]; first compound 31.62 µM) | relative viability ([1]; first compound 100 µM) | relative viability ([2]; first compound 1 µM) | relative viability ([2]; first compound 3.162 µM) | relative viability ([2]; first compound 10 µM) | relative viability ([2]; first compound 31.62 µM) | relative viability ([2]; first compound 100 µM) | relative viability ([3]; first compound 0.04 µM) | relative viability ([3]; first compound 0.1265 µM) | relative viability ([3]; first compound 0.4 µM) | relative viability ([3]; first compound 1.265 µM) | relative viability ([3]; first compound 4 µM) | relative viability ([4]; first compound 1 µM) | relative viability ([4]; first compound 3.162 µM) | relative viability ([4]; first compound 10 µM) | relative viability ([4]; first compound 31.62 µM) | relative viability ([4]; first compound 100 µM) |
| --- | --- | --- | --- | --- | --- | --- | --- | --- | --- | --- | --- | --- | --- | --- | --- | --- | --- | --- | --- | --- |
| COR-L23 | 0.336 | 0.329 | 0.277 | 0.178 | 0.138 | 0.633 | 0.742 | 0.454 | 0.351 | 0.182 | 0.896 | 0.927 | 0.92 | 0.996 | 0.536 | 0.201 | 0.199 | 0.193 | 0.207 | 0.168 |
| NCI-H2087 | 0.607 | 0.478 | 0.323 | 0.34 | 0.239 | 1.07 | 0.803 | 0.551 | 0.654 | 0.197 | 1.09 | 1.02 | 1.17 | 1.01 | 0.699 | 0.722 | 0.667 | 0.511 | 0.548 | 0.216 |
| LC-2-ad | 0.729 | 0.681 | 0.434 | 0.201 | 0.254 | 0.498 | 0.434 | 0.363 | 0.377 | 0.249 | 0.874 | 0.821 | 0.778 | 0.722 | 0.522 | 0.276 | 0.289 | 0.27 | 0.255 | 0.259 |
| NCI-H1915 | 0.266 | 0.262 | 0.243 | 0.253 | 0.197 | 1.18 | 0.911 | 0.649 | 0.926 | 0.698 | 1.1 | 1.12 | 1.1 | 1.12 | 1.05 | 0.54 | 0.46 | 0.449 | 0.553 | 0.513 |
| NCI-H2023 | 0.512 | 0.452 | 0.392 | 0.256 | 0.244 | 0.807 | 0.569 | 0.611 | 0.389 | 0.201 | 0.72 | 0.507 | 0.569 | 0.605 | 0.543 | 0.232 | 0.2 | 0.138 | 0.18 | 0.149 |
| COR-L 105 | 0.715 | 0.671 | 0.766 | 1.02 | 0.644 | 1.07 | 0.785 | 0.503 | 0.718 | 0.729 | 1.11 | 0.813 | 0.926 | 0.856 | 0.666 | 1.26 | 1.06 | 0.987 | 1.24 | 0.824 |
| RERF-LC-KJ | 0.989 | 0.874 | 0.655 | 1.03 | 0.845 | 1.01 | 0.826 | – | 0.885 | 0.977 | 0.919 | 0.882 | 0.842 | 0.814 | 0.812 | 0.447 | 0.505 | 0.415 | 0.507 | 0.443 |
| LXF-289 | 1.06 | 0.995 | 0.549 | 0.31 | 0.275 | 0.835 | 0.828 | 0.714 | 0.622 | 0.238 | 1.05 | 0.91 | 0.943 | 0.947 | 0.916 | 0.919 | 0.879 | 0.895 | 0.702 | 0.403 |
